Results reported in paper PMC7497016, “The Human Host‐Defense Peptide Cathelicidin LL‐37 is a Nanomolar Inhibitor of Amyloid Self‐Assembly of Islet Amyloid Polypeptide (IAPP)” (Angewandte Chemie (International Ed. in English), 2020).
Read-outs that look alike come from different tables or passages of the source. Ends that are not written are not given here.

What was measured:
[1] = target: T1, IAPP monomers and fibrils (Homo sapiens, UniProt P10997); assay: Dot blot binding to IAPP monomers and fibrils; conditions: IAPP monomers and fibrils (40 µg) on nitrocellulose, FAM-LL-37 200 nM, overnight 10 °C; representative of 4 assays
T1 construct: The 37‐residue IAPP is secreted from the β‐cells together with insulin; made in house; host or cells: chemical synthesis (Fmoc solid-phase synthesis on Rink resin)
T1 sequence (P10997 34-70 limits assumed): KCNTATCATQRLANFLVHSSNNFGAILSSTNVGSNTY
Method: Solutions were cross-linked using 25% aqueous glutaraldehyde (Sigma-Aldrich) an d 10% aqueous trichloro acetic acid (TCA ) was […] buffer, boiled for 5 min, and subjected to NuPAGE electrophoresis in 4- 12% Bis-Tris gels with MES running buffer (Invitrogen). The s ame volume of each solution (same IAPP amount) was loaded in all l anes. Peptid es were blotted using a X Cell II Blot Module blotting system (Invitrogen ). IAPP or […] using a polyclonal rabbit anti-IAPP antibody (Peninsula) or a monoclonal mouse anti-LL- 37 antibody (Santa Cruz Biotechnology), resp ectively in combination with suitable peroxidase (POD)-coupled s econdary antibodies (Pierce & Am […] Super Signal West Dura Extended Duration Substrate (Pierce). Of note, previous studies provided evidence for the […] of th e cross-linking assay; in addition, no new bands were obs […]-37 (1/1) mixtures (data not shown).[5] Dot blot analysis IAPP monomers or IAPP fibrils (fIAPP) containin g solutions (different am ounts up to 40 μg) were spotted onto a nitrocellulose membrane. […] In addition, to control for t he interference of fibril autofluorescence, a membrane containing spotted f IA P P which had been incubated in buffer alone w/o FAM-LL-37 was included in each assay; in general, fIAPP autofluorescence contribute d up to 25% of the total amount of fluorescence observed in fIAPP bound toFAM -LL- 37. […]

[2] = target: T2, IAPP (Fluos-IAPP, mostly monomers) (Homo sapiens, UniProt P10997); assay: Fluorescence spectroscopic titration of Fluos-IAPP; type: binding; conditions: for Kd: SD
T2 construct: made in house; host or cells: chemical synthesis
T2 sequence (P10997 34-70 limits assumed): T1 sequence (P10997 34-70 limits assumed)
Method: Fluorescence spectros copic titrations
Fluorescence spectrosco pic titration studies w ere performed with a JASC O FP-6500 fluorescence spectrophotometer using a previously described experimental protocol.[1, 5, 7] Briefly, excitation was at 492 nm and emission spectra were recorded between 500 and 600 nm. The app arent (app.) Kds of the interactions of IAPP with LL-37 and its segments LL-37(1- 14) and LL-37(15- 37) were quantified by titrating synthetic N α-amino-terminal fluorescein labeled IAPP (5 nM) with various amounts of each of the peptides . For all exp eri ments , freshly made stocks of peptides and their fluorescently lab eled an alogs in HF IP wer e used. Measurements w er e performed in 10 mM sodium phosphate buffer (pH 7.4) containing 1% HFIP within 2-5 min following solution preparation at room temperature. Of note, under these conditions freshly made Fluos-IAPP (5 nM) solutions consist mostly of monomers.[1] App. Kds were calculated using 1/1 binding models as previously described and ar e means (± SD) of three binding curves.[1, 3, 5, 7]
Cross-linking, NuPAGE, and Western Blot analysis
Cross-linking studies were preformed using a previously developed assay system.[5] Briefly, solutions of IAPP alone (30 µM) and its mixtures with LL-37 or scrLL- 37 at the indicated molar ratios (IAPP/LL-37 at 1/1 or 1/0.1) wer e p repared in aqueous sodium phosphate buffer, pH 7.4,

RIN5fm cells = conditions: LL-37 alone, 7 days aged, 1 assay, n=3
[3] = system: cytotoxic IAPP assemblies on RIN5fm cells
[4] = Fluos-IAPP 5 nM, 10 mM sodium phosphate pH 7.4, 1% HFIP, room temperature, 1/1 binding model, mean (±SD) of three binding curves, read-out: app. Kd of interaction with Fluos-IAPP

## FAM-LL-37: N-terminal fluorescein-labeled LL-37 with 6-aminohexanoic acid spacer, from Anaspec
[1]
  binding to IAPP fibrils and monomers (dot blot): bound both IAPP fibrils and monomers

## LLGDFFRKSKEKIG [LL-37(1-14)]
[2]; [4]
  Kd: 2540 nM

## CC[C@H](C)[C@H](NC(=O)[C@H](CCCCN)NC(=O)[C@H](CCC(=O)O)NC(=O)[C@H](CCCCN)NC(=O)[C@H](CO)NC(=O)[C@H](CCCCN)NC(=O)[C@H](CCCNC(=N)N)NC(=O)[C@H](Cc1ccccc1)NC(=O)[C@H](Cc1ccccc1)NC(=O)[C@H](CC(=O)O)NC(=O)CNC(=O)[C@H](CC(C)C)NC(=O)[C@@H](N)CC(C)C)C(=O)NCC(=O)N[C@@H](CCCCN)C(=O)N[C@@H](CCC(=O)O)C(=O)N[C@@H](Cc1ccccc1)C(=O)N[C@@H](CCCCN)C(=O)N[C@@H](CCCNC(=N)N)C(=O)N[C@H](C(=O)N[C@H](C(=O)N[C@@H](CCC(N)=O)C(=O)N[C@@H](CCCNC(=N)N)C(=O)N[C@H](C(=O)N[C@@H](CCCCN)C(=O)N[C@@H](CC(=O)O)C(=O)N[C@@H](Cc1ccccc1)C(=O)N[C@@H](CC(C)C)C(=O)N[C@@H](CCCNC(=N)N)C(=O)N[C@@H](CC(N)=O)C(=O)N[C@@H](CC(C)C)C(=O)N[C@H](C(=O)N1CCC[C@H]1C(=O)N[C@@H](CCCNC(=N)N)C(=O)N[C@H](C(=O)N[C@@H](CCC(=O)O)C(=O)N[C@@H](CO)C(=O)O)[C@@H](C)O)C(C)C)[C@@H](C)CC)C(C)C)[C@@H](C)CC [LL-37]
RIN5fm cells
  cytotoxicity of peptide alone (MTT reduction): not cytotoxic
[3]
  effect on formation of cytotoxic IAPP assemblies (MTT reduction): effectively suppressed
[3]; rat, SD
  IC50: 17 nM
[2]; Fluos-IAPP 5 nM with 100-fold molar excess of LL-37, pH 7.4
  increase in fluorescence emission of Fluos-IAPP: 322%
[2]
  Kd: 88.1 nM

## KEFKRIVQRIKDFLRNLVPRTES [LL-37(15-37)]
[2]; [4]
  Kd: 31.9 nM
